How the values were obtained:
pigweed = experiment: Test A preemergence; assay type: in vivo, Amaranthus retroflexus
Outline: (§1)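 Visual 0–100 rating (100 = complete control) taken about 10 d post-treatment relative to untreated checks. Preemergence: directed soil spray on sown loam/sand pots. Postemergence: seedlings 2–10 cm, 1–2 leaf. Non-phytotoxic solvent formulation with surfactant.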

corn [1] = experiment: Test A preemergence; assay type: in vivo, Zea mays
Outline: as §1

large (Lg) crabgrass = experiment: Test A postemergence; assay type: in vivo, Digitaria sanguinalis; settings: 0 to 100 scale where 0 is no effect and 100 is complete control
Outline: as §1

giant foxtail = experiment: Test A postemergence; assay type: in vivo, Setaria faberii; settings: 0 to 100 scale where 0 is no effect and 100 is complete control
Outline: as §1

wheat = experiment: Test A postemergence; assay type: in vivo, Triticum aestivum; settings: 0 to 100 scale where 0 is no effect and 100 is complete control
Outline: as §1

Heteranthera limosa = experiment: Test B flooded paddy test; assay type: in vivo; settings: Flood, 250 g ai/ha; 0 to 100 scale where 0 is no effect and 100 is complete control
Outline: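 Seedlings are raised to two leaves, flooded to a depth of 3 cm and dosed by adding the compound to the floodwater. Water level is kept constant, and plants are scored visually versus controls 13–15 days later (0 = no effect, 100 = complete control).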

wheat, winter = experiment: Test C preemergence; assay type: in vivo, Triticum aestivum; settings: for Wheat plant response rating: preemergence, scale 0 (no effect) to 100 (complete control)
Outline: (§2)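 Seeds are planted in blended loam soil and sand and treated preemergence, while seedlings in a peat moss/vermiculite medium receive postemergence sprays at 2 to 18 cm height. All plants stay in the greenhouse for 13 to 15 days before visual comparison with controls on a 0–100 scale.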

galium = experiment: Test C preemergence; assay type: in vivo, Galium aparine; settings: for Galium plant response rating: preemergence, scale 0 (no effect) to 100 (complete control)
Outline: as §2

johnsongrass = experiment: Test C preemergence; assay type: in vivo, Sorghum halepense; settings: for Johnsongrass plant response rating: preemergence, scale 0 (no effect) to 100 (complete control)
Outline: as §2

waterhemp = experiment: Test C preemergence; assay type: in vivo, Amaranthus rudis; settings: for Waterhemp plant response rating: preemergence, scale 0 (no effect) to 100 (complete control)
Outline: as §2

Italian ryegrass = experiment: Test C postemergence; assay type: in vivo, Lolium multiflorum
Outline: as §2

corn [2] = experiment: Test C postemergence; assay type: in vivo, Zea mays
Outline: as §2

[3] = 500 g ai/ha, 0 to 100 scale where 0 is no effect and 100 is complete control
[4] = Preemergence, 62 g ai/ha, scale 0 to 100, 0 no effect, 100 complete control
[5] = 31 g ai/ha, postemergence, visual rating, scale 0 to 100 (0 no effect, 100 complete control), 13 to 15 days
[6] = 125 g ai/ha, postemergence, visual rating, scale 0 to 100 (0 no effect, 100 complete control)
[7] = Postemergence, 62 g ai/ha, scale 0 to 100 (0 no effect, 100 complete control), 13 to 15 days

## N#Cc1cnn(-c2c(C#N)cccc2Oc2ncc(Cl)cn2)c1 [Compound 200]
pigweed; 125 g ai/ha
  Pigweed plant response rating (0 to 100 scale): 100
pigweed; [3]
  Pigweed plant response rating: 100
Corn [1]; 125 g ai/ha
  Corn plant response rating (0 to 100 scale): 40
Corn [1]; [3]
  Corn plant response rating: 50
Large (Lg) crabgrass; 125 g ai/ha
  Crabgrass, Large plant response rating: 90
Large (Lg) crabgrass; 500 g ai/ha
  Plant response rating, Crabgrass, Large: 90
Giant foxtail; 125 g ai/ha
  Foxtail, Giant plant response rating: 90
Giant foxtail; 500 g ai/ha
  Plant response rating, Foxtail, Giant: 90
wheat; 125 g ai/ha
  Wheat plant response rating: 40
wheat; 500 g ai/ha
  Plant response rating, Wheat: 60
Heteranthera limosa
  Plant response rating, Ducksalad: 95
wheat, winter; 125 g ai/ha
  Wheat plant response rating: 90
wheat, winter; 250 g ai/ha
  Wheat plant response rating: 95
wheat, winter; [4]
  Plant response rating, Wheat: 65
galium; 125 g ai/ha
  Galium plant response rating: 100
galium; 250 g ai/ha
  Galium plant response rating: 100
galium; [4]
  Plant response rating, Galium: 100
johnsongrass; 125 g ai/ha
  Johnsongrass plant response rating: 98
johnsongrass; 250 g ai/ha
  Johnsongrass plant response rating: 98
johnsongrass; [4]
  Plant response rating, Johnsongrass: 98
waterhemp; 125 g ai/ha
  Waterhemp plant response rating: 100
waterhemp; 250 g ai/ha
  Waterhemp plant response rating: 100
waterhemp; [4]
  Plant response rating, Waterhemp: 100
Italian ryegrass; [5]
  Ryegrass, Italian plant response rating: 5
Italian ryegrass; [6]
  Plant response rating, Ryegrass, Italian: 5
Italian ryegrass; 250 g ai/ha, postemergence
  Plant response rating (0 to 100), Ryegrass, Italian: 5
Italian ryegrass; [7]
  Plant response rating, Ryegrass, Italian: 10
Corn [2]; [5]
  Corn plant response rating: 5
Corn [2]; [6]
  Plant response rating, Corn: 15
Corn [2]; 250 g ai/ha, postemergence
  Plant response rating (0 to 100), Corn: 20
Corn [2]; [7]
  Plant response rating, Corn: 10
